Several values for one entry are separate records, joined by “and”; a condition that tells them apart may be missing. Equal values may be shown once.

In experiment [1] the target is T1, PDE_XIV (Homo sapiens, UniProt Q9NP56).
T1 construct: made in house; host or cells: Sf9 insect cells (baculovirus, pFASTBAC-FLAG)
The experiment is described as follows: Phosphodiesterase inhibition studies on purified expressed PDE_XIV (cAMP SPA). It is filed as biochemical. The settings on record: for IC50: N = 2, read-out: IC50 FOR PDEXIV (μM) (N = 2). As to the method:
This allows the specific retention on the column of the recombinant material (since this is fused to the FLAG epitope) whilst the endogenous insect proteins are washed off in the eluate. The recombinant material is then washed off under conditions of low pH. […] The purity of the material is assessed by coomassie staining after sodium dodecyl sulphate-polyacrylamide gel electrophoresis (SDS-PAGE) or through western blotting onto a nitro-cellulose membrane of an unstained SDS-PAGE (containing recombinant PDE) and analysis with the IgG1 monoclonal anti-FLAG epitope antibody. The PDE-FLAG fusion protein is detected due to the interaction between the anti-FLAG antibody and the FLAG epitope which is fused to the PDE protein. The phosphodiesterase activity of the purified PDE-FLAG fusion protein was assayed using a commercially available SPA (scintillation proximity assay) kit (Amersham-Amersham place, Little Chalfont, Bucks, HP7 9NA UK) for either cAMP and/or cGMP hydrolytic activity.

The target of experiment [2] is T1, PDE_XIV. The experiment is described as follows: cAMP Scintillation Proximity Assays on purified expressed PDE_XIV (substrate hydrolysis). The experiment is classed as biochemical. For orientation: SPA uses beads or plates that emit light when radiolabelled molecules are held near them.

T1 sequence (Q9NP56 whole entry): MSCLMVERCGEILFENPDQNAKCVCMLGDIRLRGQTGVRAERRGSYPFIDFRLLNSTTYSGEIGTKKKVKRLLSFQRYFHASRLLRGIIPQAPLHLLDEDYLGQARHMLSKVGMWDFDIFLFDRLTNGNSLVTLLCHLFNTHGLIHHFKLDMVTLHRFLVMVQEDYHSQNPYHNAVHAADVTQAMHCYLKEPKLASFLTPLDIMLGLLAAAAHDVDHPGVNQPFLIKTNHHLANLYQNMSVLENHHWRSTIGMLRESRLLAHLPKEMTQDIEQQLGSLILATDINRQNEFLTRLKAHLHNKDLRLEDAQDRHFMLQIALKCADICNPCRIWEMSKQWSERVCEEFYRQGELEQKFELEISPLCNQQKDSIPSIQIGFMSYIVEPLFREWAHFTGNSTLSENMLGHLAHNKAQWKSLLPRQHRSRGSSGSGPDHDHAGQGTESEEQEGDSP

Consider `COc1ccc(C2CNC(=O)C2)cc1OC1CCCC1` (stereo not drawn) [Rolipram], for which, in experiment [1], the “sensitivity of PDE_XIV to the PDE inhibitor” value was “not to be sensitive” and the IC50 (in general, the midpoint of a concentration-inhibition curve) was greater than 30 µM.

For `CC(C)Cn1c(=O)n(C)c(=O)c2[nH]cnc21` [IBMX], the IC50 in experiment [1] was 9.32 µM and 9.72 µM.

`COc1ccc([C@]2(C#N)CC[C@@H](C(=O)O)CC2)cc1OC1CCCC1` [Ariflo]: in experiment [1], the “sensitivity of PDE_XIV to the PDE inhibitor” value is “not to be sensitive” and the concentration for half-maximal inhibition (IC50) is greater than 30 µM.

For `Cc1[nH]c(=O)c(C#N)cc1-c1ccncc1` [Milrinone], in experiment [1], the “sensitivity of PDE_XIV to the PDE inhibitor” value is “not to be sensitive” and the concentration for half-maximal inhibition (IC50) was greater than 30 µM.

As to `OCCN(CCO)c1nc(N2CCCCC2)c2nc(N(CCO)CCO)nc(N3CCCCC3)c2n1` [Dipyridamole], the IC50 in experiment [1] was 10.7 µM.

As for `Nc1nc2c(ncn2[C@@H]2O[C@@H]3COP(=O)(O)O[C@H]3[C@H]2O)c(=O)[nH]1` [cGMP], the “activity of PDE_XIV against the cyclic nucleotide” value in experiment [2] is “no activity”.

The values above are taken from patent publication US7091024B2, “Enzyme PDE XVI” (Pfizer Inc., priority 1999, dated 2006).
